Experimental data reported in PMC8578332 (Scientific Reports, 2021).
Where a SMILES comes first, the peptide text is derived from it. Bridges are numbered along the chain shown (N, C = ends).

The compounds below were run against human α7-containing nAChRs (Homo sapiens, UniProt P36544) (assay: cell-based). Conditions: not given.
human α7-containing nAChRs, sequence (P36544 23-502 limits assumed): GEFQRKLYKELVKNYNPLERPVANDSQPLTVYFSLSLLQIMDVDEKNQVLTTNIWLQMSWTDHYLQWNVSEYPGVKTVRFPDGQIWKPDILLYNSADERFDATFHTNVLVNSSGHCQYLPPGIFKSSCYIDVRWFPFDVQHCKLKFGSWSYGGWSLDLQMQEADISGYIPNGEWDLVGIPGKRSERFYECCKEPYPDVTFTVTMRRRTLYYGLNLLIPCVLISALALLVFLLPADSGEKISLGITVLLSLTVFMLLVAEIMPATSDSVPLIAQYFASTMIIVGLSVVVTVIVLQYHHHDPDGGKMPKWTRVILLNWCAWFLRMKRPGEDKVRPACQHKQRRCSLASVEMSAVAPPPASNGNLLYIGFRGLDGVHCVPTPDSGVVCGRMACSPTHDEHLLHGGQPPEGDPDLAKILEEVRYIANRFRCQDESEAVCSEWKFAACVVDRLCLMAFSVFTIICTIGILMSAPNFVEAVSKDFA
Type: cell-based
With `CC(C)[C@H](NC(=O)[C@@H]1CSSC[C@H](NC(=O)[C@@H](N)CO)C(=O)N[C@H]2CSSC[C@H](NC(=O)[C@H](C)NC(=O)[C@@H]3CCCN3C(=O)[C@H](CC(N)=O)NC(=O)[C@H](C)NC(=O)[C@H](C)NC2=O)C(=O)N[C@@H](CCCNC(=N)N)C(=O)N[C@@H](Cc2c[nH]cn2)C(=O)N[C@@H](CC(N)=O)C(=O)N[C@@H](Cc2c[nH]cn2)C(=O)N2CCC[C@H]2C(=O)N1)C(N)=O` [rAusIA [R5A]] (H-SCCAANPACRHNHPCV-NH2; disulfide 2-15, 3-9) the IC50 was over 100 µM.

Same assay, conditions: SEM
In the case of `C[C@@H]1NC(=O)[C@@H]2CSSC[C@@H](C(N)=O)NC(=O)[C@@H]3CCCN3C(=O)[C@H](Cc3c[nH]cn3)NC(=O)[C@H](CC(N)=O)NC(=O)[C@H](Cc3c[nH]cn3)NC(=O)[C@H](CCCNC(=N)N)NC(=O)[C@H](CSSC[C@H](NC(=O)[C@@H](N)CO)C(=O)N2)NC(=O)[C@H](C)NC(=O)[C@@H]2CCCN2C(=O)[C@H](CC(N)=O)NC(=O)[C@H](CCCNC(=N)N)NC1=O` [gAusIA [∆16]] (H-SCCARNPACRHNHPC-NH2; disulfide 2-9, 3-15), the IC50 is reported as 12 ± 2.3 µM.
For `CC(C)[C@H](NC(=O)[C@@H]1CSSC[C@@H]2NC(=O)[C@@H](NC(=O)[C@@H](N)CO)CSSC[C@H](NC(=O)[C@H](C)NC(=O)[C@@H]3CCCN3C(=O)[C@H](CC(N)=O)NC(=O)[C@H](CO)NC2=O)C(=O)N[C@@H](CCCNC(=N)N)C(=O)N[C@@H](Cc2c[nH]cn2)C(=O)N[C@@H](CC(N)=O)C(=O)N[C@@H](Cc2c[nH]cn2)C(=O)N2CCC[C@H]2C(=O)N1)C(N)=O` [gAusIA [A4S ∆5]] (H-SCCSNPACRHNHPCV-NH2; disulfide 2-8, 3-14), the IC50 was 0.428 ± 0.112 µM.
In the case of `CC(C)[C@H](NC(=O)[C@@H]1CSSC[C@H](NC(=O)[C@@H](N)CO)C(=O)N[C@H]2CSSC[C@H](NC(=O)[C@H](C)NC(=O)[C@@H]3CCCN3C(=O)[C@H](CC(N)=O)NC(=O)[C@H](CO)NC(=O)[C@H](C)NC2=O)C(=O)N[C@@H](CCCNC(=N)N)C(=O)N[C@@H](Cc2c[nH]cn2)C(=O)N[C@@H](CC(N)=O)C(=O)N[C@@H](Cc2c[nH]cn2)C(=O)N2CCC[C@H]2C(=O)N1)C(N)=O` [rAusIA [R5S]] (H-SCCASNPACRHNHPCV-NH2; disulfide 2-15, 3-9), the IC50 is reported as 70 ± 10 µM.
`CC(C)[C@H](NC(=O)[C@@H]1CSSC[C@H](NC(=O)[C@@H](N)CO)C(=O)N[C@H]2CSSC[C@H](NC(=O)[C@H](C)NC(=O)[C@@H]3CCCN3C(=O)[C@H](CC(N)=O)NC(=O)[C@H](CCCNC(=N)N)NC2=O)C(=O)N[C@@H](CCCNC(=N)N)C(=O)N[C@@H](Cc2c[nH]cn2)C(=O)N[C@@H](CC(N)=O)C(=O)N[C@@H](Cc2c[nH]cn2)C(=O)N2CCC[C@H]2C(=O)N1)C(N)=O` [rAusIA [∆4]] (H-SCCRNPACRHNHPCV-NH2; disulfide 2-14, 3-8) showed an IC50 of 11 ± 0.24 µM.
With `CC(C)[C@H](NC(=O)[C@@H]1CSSC[C@H](NC(=O)[C@@H](N)CO)C(=O)N[C@H]2CSSC[C@H](NC(=O)[C@H](C)NC(=O)[C@@H]3CCCN3C(=O)[C@H](CC(N)=O)NC(=O)[C@H](CCCNC(=N)N)NC(=O)[C@H](CO)NC2=O)C(=O)N[C@@H](CCCNC(=N)N)C(=O)N[C@@H](Cc2c[nH]cn2)C(=O)N[C@@H](CC(N)=O)C(=O)N[C@@H](Cc2c[nH]cn2)C(=O)N2CCC[C@H]2C(=O)N1)C(N)=O` [rAusIA [A4S]] (H-SCCSRNPACRHNHPCV-NH2; disulfide 2-15, 3-9) the IC50 was 32 ± 7.3 µM.
Compound `CC[C@H](C)[C@@H]1NC(=O)[C@H](CC(N)=O)NC(=O)[C@@H]2CCCN2C(=O)[C@H](CC(N)=O)NC(=O)[C@H](CC(N)=O)NC(=O)[C@H](C(C)C)NC(=O)[C@H](CCCNC(=N)N)NC(=O)[C@@H]2CSSC[C@H](NC(=O)[C@@H](NC(=O)CNC(=O)[C@@H](N)CO)CSSC[C@@H](C(N)=O)NC1=O)C(=O)N[C@@H](CO)C(=O)N[C@@H](CCCNC(=N)N)C(=O)N[C@@H](CC(N)=O)C(=O)N1CCC[C@H]1C(=O)N[C@@H](C)C(=O)N2` [rLsIA [∇R6]] (H-SGCCSRNPACRVNNPNIC-NH2; disulfide 3-18, 4-10) has an IC50 of 66 ± 4.1 µM.
